Source: patent publication US20060014219A1 (priority 2002, published 2006)
Like-named read-outs stand apart in the source and are kept apart here.

Legend:
[1] = tested on: tobacco budworm GABA-gated chloride channel; type: cell-based; conditions: for Fluorescence: then GABA, HEK a-3 cells, average of three tests
Description: The following solutions were prepared prior to or on the same day the experiment was to be carried out: • Solution A: To about one liter of deionized water was added 8.0 grams of sodium chloride, 0.395 gram of potassium chloride, 0.294 gram of calcium chloride, 0.203 gram of magnesium chloride, 4.5 grams of glucose, and 2.38 grams of [4-(2-hydroxyethyl)-1-piperazineethanesulfonic acid (“HEPES”) (all available from Aldrich Chemical Company, Milwaukee, Wis.). The resulting solution was stirred until dissolution was complete and then the pH adjusted to 7.3 to 7.4 with an aqueous 1 M sodium hydroxide solution. • Solution B: To one vile of the dye (“FLIPR® Membrane Potential Assay Reagent, Component A”) contained in the FLIPR® Membrane Potential Assay Kit was added about 10 ml of Solution A. The resulting mixture was mixed by repeated pippetting until the content of the vile was completely dissolved and used immediately or stored at […] for future use.
The following solution was prepared on the same day the experiment was to be carried out: • Solution C: To solution B was added about 90 mL of Solution A. The resulting mixture was mixed until dissolution was complete. • Solution D: GABA (available from Sigma Chemical Co., St. Louis, Mo.), […], was taken up in 30 ml of Solution A. The resulting solution was mixed until dissolution was completion, yielding a […] GABA solution. • Solution E: To 1.2 ml of Solution D was added 38.8 ml of Solution A. The resulting mixture was mixed by repeated pippetting until dissolution was complete, yielding a 300 μM GABA solution.
On the same day the experiment is to be carried, Solutions A-E are prepared again in the manner described above.
(§1) One day before of the experiment, HEK a-3 cells were seeded into two wells of a poly-D-lysine coated blackwall 96 well microplate with clear bottom at a cell density of about 100,000 cells per well. Upon completion of addition, the cells were incubated at 37° C. in a cell culture incubator for twenty-four hours, for use below.
In carrying out the first step, on the day of the experiment, the 96 well microplate containing the HEK a-3 cells was removed from the incubator and 100 μl of Solution C was added to the two wells of the 96 well microplate. Upon completion of addition, the microplate was allowed to stand at ambient temperature of 3.5 to 4 hours. After this time, the microplate was placed onto the FLIPR^384® Fluorometric Imaging Plate Reader system in which the laser intensity was set at a suitable level to obtain a basal value of approximately 10,000 fluorescence units, fluorescent readings were obtained every one second for the first minute and then every six seconds thereafter, and fluorescence measurements were captured by a cooled CCD camera. After ten seconds from the start of the fluorescence measurements, 25 μl of Solution E was added at a rate of 25 μl/second by the system to one of the two wells of the 96 well microplate. Upon completion of addition, the level of fluorescence of the HEK a-3 cells was determined using the FLIPR^384® Fluorometric Imaging Plate Reader system.
as §1, with “each well” for “two wells”, “bottom (available from Becton, Dickinson and Company, Franklin Lakes, N.J.)” for “bottom”
In carrying out the first step, on the day of the experiment, the 96 well microplate containing the HEK a-3 cells was removed from the incubator and 100 μl of Solution C were added to each well of the 96 well microplate. Upon completion of addition, the microplate was stored at ambient temperature for 3.5 to 4 hours. […]

[2] = tested on: tobacco budworm GABA-gated chloride channel; assay: Fluorescence in HEK a-3 cells by the standard protocol of the FLIPR Membrane Potential Assay Kit; type: cell-based; conditions: 25 μl of 300 μM GABA solution; dye incubated at 37° C. for 0.5 to one hour; FIG. 1
Description: This example illustrates the measurement of fluorescence in HEK a-3 cells in the manner described in the protocol for the FLIPR® Membrane Potential Assay Kit.
The following solutions were prepared prior to or on the same day the experiment was to be carried out: • Solution A: To about one liter of deionized water was added 8.0 grams of sodium chloride, 0.395 gram of potassium chloride, 0.294 gram of calcium chloride, 0.203 gram of magnesium chloride, 4.5 grams of glucose, and 2.38 grams of [4-(2-hydroxyethyl)-1-piperazineethanesulfonic acid (“HEPES”) (all available from Aldrich Chemical Company, Milwaukee, Wis.). […]
In carrying out the first step, on the day of the experiment, the 96 well microplate containing the HEK a-3 cells was removed from the incubator and 100 μl of Solution C was added to the two wells of the 96 well microplate. […] After this time, the microplate was placed onto the FLIPR^384® Fluorometric Imaging Plate Reader system in which the laser intensity was set at a suitable level to obtain a basal value of approximately 10,000 fluorescence units, fluorescent readings were obtained every one second for the first minute and then every six seconds thereafter, and fluorescence measurements were captured by a cooled CCD camera. […]

[3] = 0.003 μM compound, relative to DMSO control
[4] = 0.01 μM compound, relative to DMSO control
[5] = 0.03 μM compound, relative to DMSO control
[6] = 0.1 μM compound, relative to DMSO control
[7] = 0.3 μM compound, relative to DMSO control
[8] = 1 μM compound, relative to DMSO control
[9] = 3 μM compound, relative to DMSO control
[10] = 10 μM compound, [1 − (fluorescence of test compound/fluorescence of control)] × 100

Compound | Fluorescence ([1]; 0.003 μM compound) | % Inhibition [1, 3] [%] | Fluorescence ([1]; 0.01 μM compound) | % Inhibition [1, 4] [%] | Fluorescence ([1]; 0.03 μM compound) | % Inhibition [1, 5] [%] | Fluorescence ([1]; 0.1 μM compound) | % Inhibition [1, 6] [%] | Fluorescence ([1]; 0.3 μM compound) | % Inhibition [1, 7] [%] | Fluorescence ([1]; 1 μM compound) | % Inhibition [1, 8] [%] | Fluorescence ([1]; 3 μM compound) | % Inhibition [1, 9] [%] | Fluorescence ([1]; 10 μM compound) | % Inhibition [1, 10] [%] | change in fluorescence after addition of GABA [2] | change in fluorescence after addition of GABA ([1]; 25 μl of 300 μM GABA solution, dye at ambient temperature 3.5 to 4 hours, FIG. 2)
ClC1=C(Cl)[C@]2(Cl)[C@@H]3[C@@H]4C[C@@H]([C@H]5O[C@@H]45)[C@@H]3[C@@]1(Cl)C2(Cl)Cl [Dieldrin, dieldrin] | 13284 | −1 | 12339 | 5 | 11492 | 12 | 9924 | 34 | 7279 | 44 | 4184 | 68 | 900 | 93 | 67 | 100 | – | –
O=S1OCC2C(CO1)C1(Cl)C(Cl)=C(Cl)C2(Cl)C1(Cl)Cl (stereo not drawn) [Endosulfan, endosulfan] | 14343 | −3 | 15198 | −9 | 11074 | 20 | 7098 | 48 | 4426 | 68 | 1903 | 86 | 1615 | 88 | 993 | 93 | – | –
CCCC(C)C1(CC)C(=O)NC(=O)NC1=O (stereo not drawn) [Pentabarbitol] | – | – | – | – | – | – | – | – | – | – | – | – | – | – | 11575 | 5 | – | –
NCCCC(=O)O [GABA, Gamma amino-n-butyric acid] | – | – | – | – | – | – | – | – | – | – | – | – | – | – | – | – | no change in fluorescence was observed | an increase in fluorescence
N#Cc1nn(-c2c(Cl)cc(C(F)(F)F)cc2Cl)c(N)c1[S+]([O-])C(F)(F)F (stereo not drawn) [Fipronil, fipronil] | 11275 | 10 | 8328 | 43 | 6441 | 48 | 4469 | 64 | 2990 | 76 | 1790 | 86 | 1031 | 92 | 628 | 95 | – | –
CN1CCc2cc3c(cc2[C@H]1[C@@H]1OC(=O)c2c1ccc1c2OCO1)OCO3 [Bicuculine, bicuculine] | – | – | – | – | – | – | – | – | – | – | – | – | – | – | 11543 | 5 | – | –
